From article PMC11602988 (The Journal of Biological Chemistry, 2024) come the findings set out here.

The target of test [1] is T1, OCT1 WT (Homo sapiens, UniProt O15245).
T1 sequence (O15245 1-554): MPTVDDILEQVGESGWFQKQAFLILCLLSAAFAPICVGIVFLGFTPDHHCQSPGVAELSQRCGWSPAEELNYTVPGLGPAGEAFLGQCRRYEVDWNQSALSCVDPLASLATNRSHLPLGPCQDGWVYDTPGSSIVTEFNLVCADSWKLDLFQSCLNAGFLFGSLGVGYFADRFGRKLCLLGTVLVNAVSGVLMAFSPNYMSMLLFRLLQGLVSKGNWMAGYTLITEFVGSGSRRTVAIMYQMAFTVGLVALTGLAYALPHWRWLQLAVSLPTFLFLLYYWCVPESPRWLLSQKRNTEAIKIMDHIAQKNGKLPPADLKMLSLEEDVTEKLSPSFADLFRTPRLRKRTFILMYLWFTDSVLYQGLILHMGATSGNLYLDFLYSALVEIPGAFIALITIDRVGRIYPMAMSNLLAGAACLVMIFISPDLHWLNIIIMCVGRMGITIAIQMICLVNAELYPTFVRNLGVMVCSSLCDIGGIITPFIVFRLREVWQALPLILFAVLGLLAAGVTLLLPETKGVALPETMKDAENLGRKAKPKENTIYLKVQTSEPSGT
The test can be described thus: Uptake screening (transport ratio over empty vector), HEK293 cells overexpressing OCT1 WT.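 Also: intracellular substrate levels quantified by HPLC–tandem mass spectrometry after uptake in HBSS+ buffer at 37 °C, stable Flp-In HEK293 lines, fold change versus empty vector–transfected cells.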 It is filed as cell-based. Set-up: expressed in transfected cells.
Experimental: All experiments were carried out using transporter-overexpressing HEK293 cells. […] Cells were cultivated in Dulbecco’s Modified Eagle’s medium supplemented with 10% fetal calf serum, 100 U/ml penicillin, and 100 μg/ml streptomycin. Cells were passaged twice a week and kept in culture for no longer than 30 passages.
For uptake studies, 300,000 HEK293 cells were plated in each well of 24-well plates precoated with poly-D-lysine 48 prior to the experiment. On the day of the experiment, cells were washed once with prewarmed to 37 °C HBSS+ (Hank’s balanced salt solution supplemented with 10 mM Hepes, both Sigma-Aldrich). […] Uptake was stopped by adding ice-cold HBSS+ and cells were washed twice with ice-cold buffer before cell lysis was done using 80% acetonitrile containing an appropriate internal standard for eventual mass spectrometry. Relative quantification was done by comparison of transporter-overexpressing cells to empty vector–transfected controls. For uptake kinetic experiments, cells were incubated with increasing concentrations of substrate dissolved in HBSS+. Absolute quantification was done later by comparison to a standard curve in lysis buffer with known concentration.
Intracellular drug concentrations were detected and quantified by HPLC coupled to mass spectrometry. […] Substance-specific conditions were used to adjust the retention times of the analytes.
Transport ratios were determined as relative fold-increase of the uptake in transporter-overexpressing cells over empty vector–transfected control cells. For transport kinetic experiments, absolute substrate quantification was done by signal comparison to a standard curve with known concentrations. Net uptake was then determined by subtracting the uptake into empty vector–transfected cells from transporter-overexpressing cells. […] Vmax defines the maximum transport velocity, Km refers to the substrate concentration required to reach half vmax. The intrinsic clearance Clint is the ratio of vmax over Km.

In test [2] the target is T2, OCT1 Phe244Ala variant (Homo sapiens, UniProt O15245, F244A).
T2 sequence (O15245 1-554 F244A): T1 sequence (O15245 1-554) with F244A
The experiment in a line: Uptake screening (transport ratio over empty vector), HEK293 cells overexpressing OCT1 Phe244Ala variant.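 Also: stably transfected HEK293 cells, intracellular substrate quantified by HPLC-tandem mass spectrometry in cell lysates, uptake in HBSS+ buffer.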 It is filed as cell-based. Set-up: expressed in transfected cells.

The mark [3] stands for this setting: uptake ratio over empty vector, HEK293 cells overexpressing OCT1 WT.
[4] abbreviates: Phe244Ala uptake relative to WT.
The mark [5] stands for this setting: uptake ratio over empty vector, HEK293 cells overexpressing OCT1 Phe244Ala.
The mark [6] stands for this setting: uptake ratio of OCT1 WT-overexpressing HEK293 cells over empty vector.
Setting [7] is: uptake ratio of OCT1 Phe244Ala-overexpressing HEK293 cells over empty vector.
[8] abbreviates: Phe244Ala uptake relative to OCT1 WT.

Where a chain is given by its changes, count along the chain named. Like-named read-outs stand apart in the source and are kept apart here.

As for `CC[N+](CC)(CC(=O)Nc1c(C)cccc1C)Cc1ccccc1` [Denatonium], the Mean_transport_ratio_WT in test [1] (setting [3]) is recorded as 14.264. In test [2] (setting [4]), the relative_Phe244Ala_uptake_in% was determined as 121.267%. The Mean_transport_ratio_Phe244Ala in test [2] (setting [5]) was 17.085.
The corresponding values for `C[N+]1(C)CCN(c2ccccc2)CC1` [Dimethylphenylpiperazinium] are 34.77, 70.889% and 24.939.
Turning to `NC(=Nc1ccccc1)Nc1ccccc1` [Diphenylguanidine], in test [1], the Mean_transport_ratio_WT turned out to be 2.037. In test [2], the Mean_transport_ratio_Phe244Ala was 1.952 and the relative_Phe244Ala_uptake_in% amounted to 91.817%.
On to `CC(C)N(CCC(C(N)=O)(c1ccccc1)c1ccccn1)C(C)C` (centres unmarked) [Disopyramide], for which the Mean_transport_ratio_WT in test [1] (setting [3]) is listed as 1.334. The relative_Phe244Ala_uptake_in% in test [2] (setting [4]) is reported as 27.882%. Also, the Mean_transport_ratio_Phe244Ala in test [2] (setting [5]) was 1.093.
The matching figures for `CC[N+](C)(C)c1cccc(O)c1` [Edrophonium]: 25.947, 101.017% and 26.201.
For the molecule `CCC1(C2=NCCN2)Cc2ccccc2O1` (centres unmarked) [Efaroxan], the Mean_transport_ratio_WT in test [1] (setting [3]) turned out to be 1.81. Also, the relative_Phe244Ala_uptake_in% in test [2] (setting [4]) is given as 45.757%. Besides, the Mean_transport_ratio_Phe244Ala in test [2] (setting [5]) came to 1.371.
Take `Nc1nc(=O)n([C@@H]2CS[C@H](CO)O2)cc1F` [Emtricitabine]: the Mean_transport_ratio_WT in test [1] (setting [3]) is listed as 2.95. Also, the relative_Phe244Ala_uptake_in% in test [2] (setting [4]) is on record as 51.794%. Moreover, the Mean_transport_ratio_Phe244Ala in test [2] (setting [5]) was 2.01.
As for `COc1cc2c(cc1OC)-c1cc3ccc4c(c3c[n+]1CC2)OCO4` [Epiberberine], the Mean_transport_ratio_WT in test [1] (setting [3]) is reported as 22.185. Also, the relative_Phe244Ala_uptake_in% in test [2] (setting [4]) came to 84.587%. In test [2] (setting [5]), the Mean_transport_ratio_Phe244Ala is 18.92.
The corresponding values for `CCNCC(O)c1cccc(O)c1` (centres unmarked) [Etilefrine] are 6.81, 39.917% and 3.319.
As for `O=S(=O)(c1cccc2cnccc12)N1CCCNCC1` [Fasudil], the Mean_transport_ratio_WT in test [1] (setting [6]) was found to be 1. The Mean_transport_ratio_Phe244Ala in test [2] (setting [7]) stood at 1.171.
In the case of `C[N+]1(CCC(C(N)=O)(c2ccccc2)c2ccccc2)CCCCC1` [Fenpiverinium], the Mean_transport_ratio_WT in test [1] (setting [6]) is 38.408. Also, in test [2] (setting [8]), the relative_Phe244Ala_uptake_in% was found to be 131.946%. In test [2] (setting [7]), the Mean_transport_ratio_Phe244Ala stood at 50.359.
With `CCOC(=O)c1ccc(OC(=O)CCCCCNC(=N)N)cc1` [Gabexate], the Mean_transport_ratio_WT in test [1] (setting [6]) is on record as 1.935. Further, in test [2] (setting [8]), the relative_Phe244Ala_uptake_in% amounted to 112.397%. Moreover, the Mean_transport_ratio_Phe244Ala in test [2] (setting [7]) is on record as 2.051.
For `N=C(N)NC(=O)Cc1c(Cl)cccc1Cl` [Guanfacine], the Mean_transport_ratio_WT in test [1] (setting [6]) was 3.273. Further, the relative_Phe244Ala_uptake_in% in test [2] (setting [8]) is 86.485%. For the same molecule, the Mean_transport_ratio_Phe244Ala in test [2] (setting [7]) stood at 2.966.
The corresponding values for `COc1ccc2c3c([nH]c2c1)C(C)=NCC3` [Harmaline] are 1.46, 53.184% and 1.245.
The corresponding values for `CC(N)CCCC(C)(C)O` (centres unmarked) [Heptaminol] are 8.957, 20.840% and 2.658.
The matching figures for `Oc1ccc(CC2NCCc3cc(O)c(O)cc32)cc1` (centres unmarked) [Higenamine]: 27.934, 44.661% and 13.029.
With `NCc1ccc(O)cc1` [Hydroxybenzylamin], the Mean_transport_ratio_WT in test [1] (setting [6]) came out at 2.288. In addition, the relative_Phe244Ala_uptake_in% in test [2] (setting [8]) is 22.795%. Also, in test [2] (setting [7]), the Mean_transport_ratio_Phe244Ala was 1.294.
The corresponding values for `C[C@H]1N=C(N(C)C)N=C(N)N1` [Imeglimin] are 32.655, 25.831% and 9.177.
